According to patent US7235674B2, “Substituted coumarins and quinolines and analogs as activators of caspases and inducers of apoptosis and the use thereof” (Cytovia, Inc., priority 2001, dated 2007):

Experiments:
[1] = test system: Human breast cancer cell line T-47D; experiment: Caspase cascade activation assay (N-(Ac-DEVD)-N'-ethoxycarbonyl-R110 fluorogenic substrate) in T-47D cells; type: cell-based; conditions: for Caspase activity (Ratio) T-47D: ratio of net RFU of test compound to control, 3 h substrate reading
Method: (§1) Human breast cancer cell lines T-47D and ZR-75-1 were grown according to media component mixtures designated by American Type Culture Collection +10% FCS (Invitrogen Corporation), in a 5% CO2 −95% humidity incubator at 37° C. T-47D and ZR-75-1 cells were maintained at a cell density between 30 and 80% confluency at a cell density of 0.1 to 0.6×10^6 cells/mL. Cells were harvested at 600×g and resuspended at 0.65×10^6 cells/mL into appropriate media +10% FCS. An aliquot of 45 μl of cells was added to a well of a 96-well microtiter plate containing 5 μl of a 10% DMSO in RPMI-1640 media solution containing 0.16 to 10 μM of 3-cyano-7-methoxy-4-(3-bromo-4,5-dimethoxyphenyl)-2-oxo-2H-chromene (Example 1) or other test compound (0.016 to 1 μM final). An aliquot of 45 μl of cells was added to a well of a 96-well microtiter plate containing 5 μl of a 10% DMSO in RPMI-1640 media solution without test compound as the control sample. The samples were mixed by agitation and then incubated at 37° C. for 24 h in a 5% CO2 −95% humidity incubator. After incubation, the samples were removed from the incubator and 50 μl of a solution containing 20 μM of N-(Ac-DEVD)-N′-ethoxycarbonyl-R110 fluorogenic substrate (SEQ ID NO:1) (Cytovia, Inc.; WO99/18856), 20% sucrose (Sigma), 20 mM DTT (Sigma), 200 mM NaCl (Sigma), 40 mM Na PIPES buffer pH 7.2 (Sigma), and 500 μg/ml lysolecithin (Calbiochem) was added. The samples were mixed by agitation and incubated at room temperature. Using a fluorescent plate reader (Model 1420 Wallac Instruments), an initial reading (T=0) was made approximately 1-2 min after addition of the substrate solution, employing excitation at 485 nm and emission at 530 nm, to determine the background fluorescence of the control sample. After the 3 h incubation, the samples were read for fluorescence as above (T=3 h).
(§2) The Relative Fluorescence Unit values (RFU) were used to calculate the sample readings as follows: RFU(T=3 h)−Control RFU(T=0)=Net RFU(T=3 h)
(§3) The activity of caspase cascade activation was determined by the ratio of the net RFU value for 3-cyano-7-methoxy-4-(3-bromo-4,5-dimethoxy-phenyl)-2-oxo-2H-chromene, or other test compound, to that of control samples. The EC50 (nM) was determined by a sigmoidal dose-response calculation (Prism 2.0, GraphPad Software Inc.).

[2] = test system: Human breast cancer cell line ZR-75-1; experiment: Caspase cascade activation assay (N-(Ac-DEVD)-N'-ethoxycarbonyl-R110 fluorogenic substrate) in ZR-75-1 cells; type: cell-based; conditions: for maximal fold induction: ZR-75-1, 24 h, read-out: Max efficacy ZR751; for Caspase activity (Ratio) ZR-75-1: ratio of net RFU of test compound to control, 3 h substrate reading
Method: as §1, §2, §3

[3] = commercial fused-pyridine compounds, T47D cells
[4] = Homo sapiens, commercial fused-pyridine compounds, ZR751 cells
[5] = Homo sapiens, ZR-75-1, commercial fused-pyridine compounds, ZR751 cells
[6] = Homo sapiens, T47D, caspase cascade activation potency, T-47D cells, 24 h incubation
[7] = Homo sapiens, caspase cascade activation potency, ZR-75-1 cells, 24 h incubation

`COc1ccc(-c2c(C#N)c(N)nc3c2CN(C)CC3)cc1OC` [compound 50] was tested, and the “EC50 (nM) T47D” value [1, 3] was “Inactive”, the “Max efficacy T47D” value [1, 3] was “Inactive” and the maximal fold induction [2, 4] was 2.4. The EC50 [2, 5] was 576 nM.
In the case of `COc1cc(-c2c(C#N)c(=O)oc3c2ccc2c3ccn2C)cc2c1OCO2` [Example 40, 3-Cyano-4-(3-methoxy-4,5-methylenedioxyphenyl)-7-methyl-2-oxo-2H-pyrrolo[2,3-h]chromene], the EC50 [1, 6] is reported as > 100 nM, the “Caspase activity (Ratio) T-47D” value ([1]; T-47D cells, 24 h incubation) is reported as 1.7 and the EC50 [2, 7] is reported as 24 nM. For the same compound, the “Caspase activity (Ratio) ZR-75-1” value ([2]; ZR-75-1 cells, 24 h incubation) was 4.9.
For `COc1ccc2c(-c3cc(Br)c(OC)c(OC)c3)c(C#N)c(=O)oc2c1` [Example 1, 3-Cyano-7-methoxy-4-(3-bromo-4,5-dimethoxyphenyl)-2-oxo-2H-chromene], the EC50 [1, 6] was 257 nM, the “Caspase activity (Ratio) T-47D” value ([1]; T-47D cells, 24 h incubation) was 6.2 and the EC50 [2, 7] was 97 nM. For the same compound, the “Caspase activity (Ratio) ZR-75-1” value ([2]; ZR-75-1 cells, 24 h incubation) was 4.2.
In the case of `C=CCNc1nc2nc(N)c(C#N)c(-c3ccc(Br)cc3)c2s1` [compound 48], the “EC50 (nM) T47D” value [1, 3] is reported as “Inactive”, the “Max efficacy T47D” value [1, 3] is reported as “Inactive” and the maximal fold induction [2, 4] is reported as 2.9. For the same compound, the EC50 [2, 5] was 6040 nM.
With `N#Cc1c(N)nc2c(c1-c1cccs1)CCCC2` [compound 46] the “EC50 (nM) T47D” value [1, 3] was “Inactive”, the “Max efficacy T47D” value [1, 3] was “Inactive” and the maximal fold induction [2, 4] was 3.1. For the same compound, the EC50 [2, 5] was 3410 nM.
For `COc1cccc(-c2c(C#N)c(=O)[nH]c3cc(Cl)ccc23)c1` [Example 8, 7-Chloro-3-cyano-4-(3-methoxy-phenyl)-quinolin-1H-2-one], the EC50 ([1]; caspase cascade activation potency, T-47D cells, 24 h incubation) was 1170 nM, the “Caspase activity (Ratio) T-47D” value ([1]; T-47D cells, 24 h incubation) was 4.1 and the EC50 ([2]; caspase cascade activation potency, ZR-75-1 cells, 24 h incubation) was 878 nM. For the same compound, the “Caspase activity (Ratio) ZR-75-1” value ([2]; ZR-75-1 cells, 24 h incubation) was 10.1.
For `Cn1ccc2c3oc(=O)c(C#N)c(-c4cccc(Br)c4)c3ccc21` [Example 42, 3-Cyano-4-(3-bromo-phenyl)-7-methyl-2-oxo-2H-pyrrolo[2,3-h]chromene], the EC50 [1, 6] was 56 nM, the “Caspase activity (Ratio) T-47D” value ([1]; T-47D cells, 24 h incubation) was 2.6 and the EC50 [2, 7] was 17 nM. The “Caspase activity (Ratio) ZR-75-1” value ([2]; ZR-75-1 cells, 24 h incubation) was 4.2.
`COc1ccccc1-c1c(C#N)c(N)nc2c1CCc1ccccc1-2` [compound 44] showed a maximal fold induction ([1]; Homo sapiens, 24 h, commercial fused-pyridine compounds, T47D cells, read-out: Max efficacy T47D) of 10.7, an EC50 ([1]; Homo sapiens, commercial fused-pyridine compounds, T47D cells) of 3120 nM and a maximal fold induction [2, 4] of 19.2. For the same compound, the EC50 [2, 5] was 2040 nM.
With `COc1cccc(-c2c(C#N)c(=O)oc3cc(OC)ccc23)c1` [Example 17, 3-Cyano-4-(3-methoxy-phenyl)-7-methoxy-2-oxo-2H-chromene] the EC50 [1, 6] was 99.7 nM, the “Caspase activity (Ratio) T-47D” value ([1]; T-47D cells, 24 h incubation) was 8.9 and the EC50 [2, 7] was 43.4 nM. For the same compound, the “Caspase activity (Ratio) ZR-75-1” value ([2]; ZR-75-1 cells, 24 h incubation) was 11.7.
`COc1ccc(OC)c(C2=c3ccc4c(c3OC(=O)C2C#N)C=CN=4)c1` (stereo not shown) [Example 24, 3-Cyano-4-(2,5-dimethoxyphenyl)-2-oxo-2H-pyrrolo[2,3-h]chromene] was tested, and the EC50 [1, 6] was 585 nM, the “Caspase activity (Ratio) T-47D” value ([1]; T-47D cells, 24 h incubation) was 4.5 and the EC50 [2, 7] was 405 nM. For the same compound, the “Caspase activity (Ratio) ZR-75-1” value ([2]; ZR-75-1 cells, 24 h incubation) was 7.1.
